Measurements taken from patent publication US9192601B2, “Methods for enhancing muscle performance and tone” (Salk Institute for Biological Studies, priority 2006, dated 2015).
“Also recorded” adds a separate entry of the source.

What was measured:
p44/42 MAPK = experiment: Western blot of phospho-p44/42 MAPK in quadriceps; assay type: in vivo, mouse; details: sedentary or trained muscles
Source text: (§1) Exercise training is known to activate kinases, such as p44/42 MAPK and AMPK, which regulate gene expression in skeletal muscle (Chen et al., Diabetes, 52:2205-12, 2003; Goodyear et al., Am. J. Physiol, 271:[…]-8, 1996). AMPK affects skeletal muscle gene expression and oxidative metabolism (Chen et al., Diabetes. 52: 2205-12, 2003, Reznick et al., J. Physiol. 574: 33-9, 2006). The interaction between exercise-regulated kinases and PPARδ signaling is described in this Example. The levels of phospho-p44/42 MAPK and phospho-AMPK a subunit and total AMPK were determined in protein homogenates of quadriceps muscle by Western blot. Antibodies specific for phospho-p44/42 MAPK, phospho- and total-AMPK αl antibodies were obtained from Cell Signaling. The phospho-specific AMPK αl antibody recognizes the key activating threonine in the activation loop.

primary muscle cells = experiment: Gene expression in wild type and PPARδ null primary muscle cells; assay type: cell-based, mouse; details: wild type vs PPARδ null cells
Description: Primary muscle cells were isolated from wild type and PPARδ null mice as previously described (Rando and Blau, J. Cell. Biol. 125(6): 1275-87, 1994). […] RNA expression of UCP3, PDK4, LPL, and HSL was determined using real time quantitative PCR as described in Example 1.
To test this possibility, wild-type and PPARδ null primary muscle cells were used.

quadriceps muscle = experiment: Real time quantitative PCR of gene expression in quadriceps muscle; assay type: in vivo, mouse
Description: Animals were euthanized by carbon dioxide asphyxiation 72 hours after the final treatment. Gastrocnemius and quadriceps muscles were isolated, frozen and stored at −80° C. for future analysis. Total RNA was prepared from quadriceps muscle using TRIzoL™ reagent (Invitrogen, Carlsbad, Calif., USA) in conformance with manufacturer's instructions. Real time quantitative PCR (QPCR) was used to determine expression levels of uncoupling protein 3 (UCP3), muscle carnitine palmitoyl transferase I (mCPT I) and pyruvate dehydrogenase kinase 4 (PDK4) using primers known to those of ordinary skill in the art.
(§2) In addition to affecting the contractile apparatus of skeletal muscle, exercise training also increases skeletal muscle mitochondrial density (e.g., Freyssenet et al., Arch. Physiol. Biochem., 104(2): 129-141, 1996). […] Mice in all groups were acclimated to moderate treadmill running and basal running endurance was determined as described in Example 1. Thereafter, mice in the exercise-trained groups received four weeks (5 days/week) of exercise training on a treadmill inclined at 5 degrees. […] At the end of four weeks, all exercise-trained mice were running for 50 min/day at 18 m/min. […] Unless otherwise noted, V, GW, Tr and GW+Tr subjects described in this and the examples below were similarly treated. At the end of the drug treatment and/or training protocol (Week 5) 6 mice per group were subjected to the running test. […] RNA was prepared real time quantitative PCR performed as described in Example 1.

[1] = Muscle triglyceride (mTG) content; assay type: in vivo, mouse
Description: Altered triglycerides can be used to access changes in muscle oxidative capacity. Muscle triglyceride (mTG) content was measured as previously described (Wang et al., PLoC Biol, 2:e294, 2004) using a kit from Thermo Electron Corporation. […] Gene and/or protein expression that is induced by a combination of exercise and drug treatment (e.g., PPARδ agonist administration) but not by either input alone is believed to be a new discovery. This type of response can be used to further characterize the intersection of pharmacologic and physiologic genetic networks. For example, one or more genes and/or proteins uniquely regulated by one or more drugs {e.g., PPARδ agonists) and exercise can be used as markers, for instance, of illicitly boosting performance in professional and/or amateur athletes.

AMPK = experiment: Western blot of phospho-AMPK in quadriceps; assay type: in vivo, mouse; details: sedentary or trained muscles
Source text: as §1

myosin heavy chain (MHC) = experiment: Myosin heavy chain (MHC) expression; assay type: in vivo, mouse
Description: (§3) In addition to its effects on the fiber type, exercise training increased skeletal muscle mitochondrial biogenesis, which can be measured as a function of mitochondrial DNA expression levels using quantitative real time PCR (QPCR). Mitochondrial DNA expression levels were determined in muscles of V, GW, Tr, and GW+Tr subjects using quantitative real time PCR. […] Such an increase is known to contribute to enhanced endurance capacity (e.g., Holloszy, Med. Sci. Sports 7:155-64, 1975). Slow-twitch and fast-twitch muscle fiber types also can be distinguished by myosin isoform expression (Gauthier and Lowey, J. Cell Biol. 81:10-25, 1979; Fitzsimons and Hoh, Biochem. J. 193:229-33, 1981). […] Therefore, at least at the transcriptional level, the PPARδ agonist was capable of inducing some proteins characteristic of a slow-twitch muscle fiber phenotype.

[2] = system: myoglobin, UCP3, cytochrome c (CYCS) and SCDl; experiment: Western blotting of oxidative biomarkers in quadriceps; assay type: in vivo, mouse; details: combined exercise and GW1516 vs either alone
Description: In addition to gene expression, protein expression was determined for selective oxidative biomarkers including myoglobin, UCP3, cytochrome c (CYCS) and SCDl, using Western blotting. Protein homogenates were prepared from quadriceps muscle, separated by SDS polyacrylamide gel electrophoresis, transferred to blotting membrane and probed with antibodies specific for myoglobin (Dako), UCP3 (Affinity Bioreagents), cytochrome c (Santacruz) SCDl (Santacruz), and, as a loading control, tubulin (Sigma).

C57B/6J mice = experiment: Treadmill running endurance test; assay type: in vivo, mouse
Description: Mice were acclimated to moderate treadmill running (10 m/min for 15 min) every other day for 1 week. After acclimation, basal running endurance was determined by placing each mouse on a treadmill, gradually increasing the speed from 0 to 15 m/min, and maintaining 15 m/min until the mouse was exhausted. The time and distance run until exhaustion were recorded as the basal endurance values (Week 0).
Treatments were administered orally.
Expression of biomarkers characteristic of an oxidative phenotype in skeletal muscle, typically, has been correlated with increased oxidative performance (e.g., increased running endurance) of such skeletal muscle. […] Accordingly, to determine the functional effects of ligand, age and weight matched cohorts of treated and control mice were subjected to an endurance treadmill performance test before (week 0) and after (week 5) treatment.
as §2
At the end of the drug treatment and/or training protocol (Week 5) 6 mice per group were subjected to the running test.
At the end of the drug treatment and/or training protocol (Week 5), running endurance of six mice per group was determined in the same manner as was basal running endurance. […] on three mice in each group to confirm that changes observed in the skeletal muscle were not due to the acute run, but were related to the exercise training.

mitochondrial DNA = experiment: Mitochondrial DNA expression by QPCR; assay type: in vivo, mouse
Description: as §3

[3] = 4 weeks exercise training + GW1516, Week 5

For `Cc1cc(SCc2sc(-c3ccc(C(F)(F)F)cc3)nc2C)ccc1OCC(=O)O` [GW1516, (2-methyl-4(((4-methyl-2-(4-trifluoromethylphenyl)-1,3-thiazol-5-yl)methyl)sulfanyl)phenoxy)acetic acid], the “activation of p44/42” value (p44/42 MAPK) was “failed to activate”, the “induction of oxidative genes (UCP3, mCPT I, PDK4)” value (primary muscle cells) was “mediated via activation of PPARδ” and the “earliest detection of changes in UCP3, mCPT I, PDK4 expression” value (quadriceps muscle; 2-5 mg/kg/day) was 4 days. For the same compound, the “expression of SCDl, FAS, SREBPIc, FAT/CD36, LPL” value (quadriceps muscle; GW1516 alone) was “no response”, the “expression of UCP3, mCPT I, and PDK4” value (quadriceps muscle; GW1516 alone, four weeks, quadriceps) was “induced; also recorded: upregulated” and the “expression of SCDl, FAS, SREBPIc, FAT/CD36, LPL” value (quadriceps muscle; GW1516 combined with exercise) was “robustly induced”. The “expression of UCP3, mCPT I, and PDK4” value (quadriceps muscle; GW1516 with exercise vs GW1516 alone) was “no further induction”, the “exercise-induced increase in muscle triglycerides” value ([1]; GW1516-treated exercise trained mice) was “completely reversed” and the “mTG content vs vehicle” value ([1]; sedentary mice) was “comparable”. For the same compound, the “activation of AMPK” value (AMPK) was “failed to activate”, the “MHC I and MHC lib expression” value (myosin heavy chain (MHC); GW1516 combined with exercise) was “did not induce additional changes” and the “expression of MHC Ha” value (myosin heavy chain (MHC); sedentary mice) was “did not alter”. For the same compound, the “expression of MHC I” value (myosin heavy chain (MHC); sedentary mice vs vehicle) was “increased”, the “expression of MHC lib” value (myosin heavy chain (MHC); sedentary mice vs vehicle) was “decreased” and the “myoglobin, UCP3, cytochrome c, and SCDl protein expression” value [2] was “robust up regulation”. For the same compound, the “increase in running distance over vehicle-treated trained mice” value (C57B/6J mice; [3]) was 70%, the “increase in running time over vehicle-treated trained mice” value (C57B/6J mice; [3]) was 68% and the “run longer and further than nontreated controls” value (C57B/6J mice; combined with exercise training) was 60%-75%. The “increment in endurance capacity, week 5 vs week 0” value (C57B/6J mice; exercise and drug treatment, individual mice) was 100%, the “time spent or distance run on the treadmill prior to exhaustion vs controls” value (C57B/6J mice; sedentary mice, 5 mg/kg oral once per day, 4 weeks) was “did not significantly differ” and the running endurance (C57B/6J mice; sedentary mice, long-term treatment up to 5 months) was “did not change”. The “increase in mitochondrial DNA expression” value (mitochondrial DNA; combination of exercise and GW1516) was “approximately 50%” and the “mitochondrial DNA expression” value (mitochondrial DNA; drug alone) was “not changed”.
